Calls of active or inactive are those of the source. No rule for the calls is given here.

Sequence of Chaperone protein DnaK (Escherichia coli (strain K12)) (P0A6Y8 whole entry, looked up): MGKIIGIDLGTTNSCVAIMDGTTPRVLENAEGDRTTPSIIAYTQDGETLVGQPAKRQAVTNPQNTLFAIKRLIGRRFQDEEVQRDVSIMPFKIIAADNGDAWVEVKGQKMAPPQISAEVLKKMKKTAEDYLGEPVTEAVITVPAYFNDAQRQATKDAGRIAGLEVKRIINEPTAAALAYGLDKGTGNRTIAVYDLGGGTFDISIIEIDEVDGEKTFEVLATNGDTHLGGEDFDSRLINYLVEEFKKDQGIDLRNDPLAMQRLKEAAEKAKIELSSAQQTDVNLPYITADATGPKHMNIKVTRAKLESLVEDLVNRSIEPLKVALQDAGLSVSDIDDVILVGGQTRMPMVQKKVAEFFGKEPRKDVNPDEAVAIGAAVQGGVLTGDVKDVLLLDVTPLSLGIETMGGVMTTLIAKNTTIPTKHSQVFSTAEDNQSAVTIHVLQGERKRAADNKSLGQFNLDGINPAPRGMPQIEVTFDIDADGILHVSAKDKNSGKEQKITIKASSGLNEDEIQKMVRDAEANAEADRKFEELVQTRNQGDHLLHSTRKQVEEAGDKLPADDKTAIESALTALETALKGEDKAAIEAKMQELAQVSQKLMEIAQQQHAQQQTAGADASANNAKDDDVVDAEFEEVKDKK

The assay has as its target Chaperone protein DnaK (Escherichia coli (strain K12)) (UniProt P0A6Y8). Nature of the assay: E. coli DnaK SBD ligand binding – biophysical, NMR, chaperone (AID 1033). The conditions noted are these: Purified DnaK SBD.
The Kd is the free concentration of one partner at which half of the binding sites on the other are occupied at equilibrium, for simple one-to-one binding. On to `COc1ccc(C2CC(=O)NN2)cc1OC1CCCC1` (centres undefined), for which the Kd is > 4 mM (inactive).

Consider `O=C(CC1NC(=O)NC1=O)Nc1ccccc1` (centres undefined), for which the Kd was > 4 mM (inactive).

Turning to `NC1=NC(=O)/C(=C/c2ccccc2[N+](=O)[O-])S1`, the Kd is > 4 mM (inactive).

Take `Nc1nc(O)c(C2=c3cc(Cl)ccc3=NC2=O)s1`: the Kd was > 4 mM (inactive).

With `OCC1Cc2ccccc2CN1` (centres undefined), the Kd is > 4 mM (inactive).

For `Cc1cc(C)n(-c2nncn2N)n1`, the Kd was > 4 mM (inactive).

With `CC(=O)N1N=C(N)SC1c1cccnc1` (centres undefined), the Kd was > 4 mM (inactive).

Regarding `CC(C)(C)P(=O)(O)c1ccccc1`, the Kd is > 4 mM (inactive).

For the compound `Cc1cc(C)n(CC(=O)O)n1`, the Kd was > 4 mM (inactive).

For `CCOC(=O)Cc1cc(=O)n2[nH]c(C)cc2n1`, the Kd was > 4 mM (inactive).

On to `NCCCCN=C(N)N`, for which the Kd was > 4 mM (inactive).

As for `Cc1cc(C(=O)O)n[nH]1`, the Kd was > 4 mM (inactive).

Take `O=C1c2ccccc2C(=O)c2c(O)c(O)cc(O)c21`: the Kd was > 4 mM (inactive).

Regarding `O=[n+]1c2c(n([O-])c3ccccc31)CCCC2`, the Kd was > 4 mM (inactive).

In the case of `S=C(CN1CCCC1=S)N1CCOCC1`, the Kd is > 4 mM (inactive).

`Cc1ccccc1NC(=O)c1ocnc1C`: the Kd is > 4 mM (inactive).

For `Cc1ccc(C(=O)NC2=NCCS2)o1`, the Kd was > 4 mM (inactive).

Regarding `Nc1ccc(Oc2ccccc2)nc1`, the Kd is > 4 mM (inactive).

`O=C(O)c1cnn2ccccc12`: the Kd is > 4 mM (inactive).

For `[O-][n+]1onc2c1CCc1c-2nc(-c2ccccc2)n1O`, the Kd is > 4 mM (inactive).

As to `Cn1c(SCC(N)=O)nc2c1c(=O)[nH]c(=O)n2C`, the Kd is > 4 mM (inactive).

Turning to `COc1ccc(C2=CC(=O)C=CC2=O)cc1`, the Kd is > 4 mM (inactive).

Consider `CCC(C)C(NC)C(=O)O` (centres undefined), for which the Kd was > 4 mM (inactive).

For `Cc1ccccc1N1CCN(C(=O)C2CCCCC2)CC1`, the Kd was > 4 mM (inactive).

As to `O=C(Nn1c(=S)[nH]c2ccccc2c1=O)c1ccncc1`, the Kd is > 4 mM (inactive).

Regarding `NC(=O)C1CCN(C(=O)c2ccccc2F)CC1`, the Kd was > 4 mM (inactive).

Regarding `Cc1nn2c(nc1=O)SCC2(O)c1ccccc1` (centres undefined), the Kd is > 4 mM (inactive).

Regarding `Cc1ccc(CCC(N)=O)o1`, the Kd is > 4 mM (inactive).

For `Cc1cc(N)no1`, the Kd was > 4 mM (inactive).

In the case of `O=C(Nc1ccncc1)c1cncc(Br)c1`, the Kd is > 4 mM (inactive).

Take `CN=C1SC(CC(=O)Nc2ccc(O)cc2)C(=O)N1C` (centres undefined): the Kd was > 4 mM (inactive).

With `Nc1ccc(N2CCOCC2)cc1`, the Kd is > 4 mM (inactive).

Regarding `Cc1ccc2c(c1)CC[C@H]1CC(=O)CC[C@]21C`, the Kd was > 4 mM (inactive).

For `Oc1ccc(-n2cncn2)cc1`, the Kd was > 4 mM (inactive).

As for `Cc1noc(C)c1C(=O)NCc1cccs1`, the Kd was > 4 mM (inactive).

In the case of `Cn1c(=O)[nH]c(=O)c2nsnc21`, the Kd was > 4 mM (inactive).

Regarding `Cc1nc2ccccc2c(=O)n1N1C(=O)CCCC1=O`, the Kd was > 4 mM (inactive).

As to `Cc1occc1C(=O)NC1CCN(C)CC1`, the Kd was > 4 mM (inactive).

`O=C(c1ccccc1)c1ccccc1C(=O)N1CCOCC1`: the Kd is > 4 mM (inactive).

For `CCC(=O)NC(=S)Nc1ccc(N2CCOCC2)cc1`, the Kd was > 4 mM (inactive).

`COc1ccc(CN2CCC(O)CC2)c(O)c1`: the Kd was > 4 mM (inactive).

Turning to `COc1ccc(NC(=O)CSc2nccc(=O)[nH]2)cc1`, the Kd is > 4 mM (inactive).

As for `CC1(C)C[C@@H]2C(=O)CC[C@H]3O[C@]3(C)CC[C@H]21`, the Kd was > 4 mM (inactive).

For the compound `Cc1nc(N)sc1C(=O)N/N=C/c1ccncc1`, the Kd is > 4 mM (inactive).

Consider `O=c1c(O)cccc2cc(O)c(O)c(O)c12`, for which the Kd is > 4 mM (inactive).

Turning to `Cc1ccc(-c2nc(-c3cccnc3)no2)c(C)c1`, the Kd was > 4 mM (inactive).

`C=C1C(=O)O[C@@H]2C3OC3(C)CC/C=C(\C)CC[C@@H]12` (some centres undefined): the Kd is > 4 mM (inactive).

Regarding `O=C(Nc1ccccc1)N1CCOCC1`, the Kd is > 4 mM (inactive).

In the case of `O=S(=O)(Nc1cccnc1Cl)c1ccccc1`, the Kd is > 4 mM (inactive).

In the case of `CSc1nnc(CN2CCSCC2)n1C`, the Kd was > 4 mM (inactive).

`Cc1nc(N)sc1C(=O)Nc1nccs1`: the Kd was > 4 mM (inactive).

On to `CC1=C2C(=CO[C@H](C)[C@H]2C)C(=O)C(C(=O)O)=C1O`, for which the Kd is > 4 mM (inactive).

For the compound `O=C(Nc1cccnc1)Nc1ccc2c(c1)OCO2`, the Kd is > 4 mM (inactive).

For the compound `COc1cc(NC(=O)c2ccccc2)c(C)cc1N`, the Kd was > 4 mM (inactive).

Turning to `CCCCCCCCCCCCCc1ccco1`, the Kd is > 4 mM (inactive).

As to `NCCc1cnc[nH]1`, the Kd is > 4 mM (inactive).

`CSc1nnnn1-c1cccc(O)c1`: the Kd is > 4 mM (inactive).

As to `c1cncc(Cn2cccc2)c1`, the Kd was > 4 mM (inactive).

Regarding `OC[C@H]1O[C@@H](n2cnc3c(NCc4ccco4)ncnc32)[C@H](O)[C@@H]1O`, the Kd was > 4 mM (inactive).

Turning to `O=C1CNC(=O)N1c1cccc(Cl)c1`, the Kd was > 4 mM (inactive).

As for `O=C(O)c1snnc1-c1ccccc1`, the Kd is > 4 mM (inactive).

With `CC(=O)c1cccc(NC(=O)C=C(C)C)c1`, the Kd was > 4 mM (inactive).

As to `CC(=O)Nn1c(=O)[nH]c2ccccc2c1=O`, the Kd was > 4 mM (inactive).

Turning to `NS(=O)(=O)c1ccc(N=C2NC(=O)CS2)cc1`, the Kd was > 4 mM (inactive).

As for `O=C(NCc1ccco1)c1cccc(F)c1`, the Kd is > 4 mM (inactive).

For the compound `C[C@H]1O[C@@H](O[C@H]2[C@@H](O)C[C@H](O[C@H]3[C@@H](O)C[C@H](O[C@H]4CC[C@]5(C)C6C[C@@H](O)[C@]7(C)[C@@H](C8=CC(=O)OC8)CC[C@]7(O)C6CC[C@@H]5C4)O[C@@H]3C)O[C@@H]2C)C[C@H](O)[C@@H]1O` (some centres undefined), the Kd was > 4 mM (inactive).

Turning to `COc1ccc(/C=C2/SC(N)=NC2=O)c(OC)c1`, the Kd was > 4 mM (inactive).

With `CCOC(=O)C1C(C=C(C)C)C1(C)C` (centres undefined), the Kd was > 4 mM (inactive).

Take `O=C(O)CCCCCCCC(=O)O`: the Kd was > 4 mM (inactive).

Turning to `CNCc1ccco1`, the Kd was > 4 mM (inactive).

Regarding `Cc1cc(=O)[nH]c(N2CCN(Cc3ccccc3)CC2)n1`, the Kd is > 4 mM (inactive).

In the case of `O=C1NC(=O)C(C(C[N+](=O)[O-])c2ccc(O)cc2)C(=O)N1` (centres undefined), the Kd is > 4 mM (inactive).

As to `CN(C)C(=S)Nc1ccc([N+](=O)[O-])cc1`, the Kd is > 4 mM (inactive).

`Nc1ccc(-n2cncn2)cc1`: the Kd was > 4 mM (inactive).

Consider `O=C(O)c1cncc(-c2cccs2)c1`, for which the Kd was > 4 mM (inactive).

On to `Cc1ccc(C(=O)Nc2ccncc2)o1`, for which the Kd was > 4 mM (inactive).

For the compound `Cc1cccc(C)c1N1C(=O)CCC1=O`, the Kd is > 4 mM (inactive).

As to `S=C(NCc1cccnc1)NC1CC1`, the Kd was > 4 mM (inactive).

With `C[C@@H](N)[C@@H](O)c1ccccc1`, the Kd is > 4 mM (inactive).

Regarding `Cc1ccccc1C(=O)Nn1cnnc1`, the Kd was > 4 mM (inactive).

Regarding `NC(=O)CCn1c(=O)oc2ccccc21`, the Kd was > 4 mM (inactive).

For `NC(=O)c1ccsc1NC(=O)c1cccnc1`, the Kd was > 4 mM (inactive).

Consider `CSc1ccccc1NC(=O)c1ccoc1C`, for which the Kd was > 4 mM (inactive).

For the compound `Cc1ccc(C)n1NC(=O)c1ccco1`, the Kd was > 4 mM (inactive).

Turning to `O=C(NCCCSc1ncccn1)Nc1ncccn1`, the Kd was > 4 mM (inactive).

In the case of `Nc1cccc(-n2cnnn2)c1`, the Kd was > 4 mM (inactive).

Consider `CCCCCC1C(=O)CCC1CC(=O)O` (centres undefined), for which the Kd was > 4 mM (inactive).

With `O=C(Nc1ccccn1)c1cc(-n2cnnc2)ccc1Cl`, the Kd was > 4 mM (inactive).

In the case of `Cn1c(=O)c2c(ncn2C)n(C)c1=O`, the Kd is > 4 mM (inactive).

Turning to `O=C(O)CCn1c(=O)oc2ccccc21`, the Kd is > 4 mM (inactive).

As for `COc1cc2[nH]c(=S)n(C)c(=O)c2cc1OC`, the Kd is > 4 mM (inactive).

For the compound `Cc1nn2c3ccccc3nc2n(Cc2ccccc2)c1=O`, the Kd is > 4 mM (inactive).

Consider `COc1ccc2c(c1)C(NC(C)=O)C(=O)N2C` (centres undefined), for which the Kd was > 4 mM (inactive).

Take `C=CCn1c(=S)[nH]c2ccc(Br)cc2c1=O`: the Kd was > 4 mM (inactive).

As to `Cc1ccc(-n2nnnc2SCC(N)=O)c(C)c1`, the Kd is > 4 mM (inactive).

Take `O=C(O)C1CCN(C(=O)c2cccs2)CC1`: the Kd is > 4 mM (inactive).

On to `O=C(CSc1ncccn1)Nc1nccs1`, for which the Kd is > 4 mM (inactive).

Consider `O=C(NCc1cccs1)c1ccncc1`, for which the Kd was > 4 mM (inactive).

Consider `O=C(NCc1ccccn1)c1ccc(Cl)cc1Cl`, for which the Kd was > 4 mM (inactive).

Consider `O=C(CSc1ccnc(=O)[nH]1)NCc1ccccc1`, for which the Kd was > 4 mM (inactive).

In the case of `CN1CCC=C(C(=O)O)C1`, the Kd was > 4 mM (inactive).

For the compound `COc1cc(OC)cc(-c2nc(N)n[nH]2)c1`, the Kd is > 4 mM (inactive).

With `Cn1nnc2cc(C(=O)N3CCSCC3)ccc21`, the Kd was > 4 mM (inactive).

For `C=C1CCC2C(CC2(C)C)C(=O)CCC1O` (centres undefined), the Kd is > 4 mM (inactive).

As for `c1coc(CNc2ncnc3nc[nH]c23)c1`, the Kd is > 4 mM (inactive).

For `Fc1ccc2onc(C3CCNCC3)c2c1`, the Kd was > 4 mM (inactive).

For the compound `Cc1ccccc1NC(=O)C1CCC(=O)N1` (centres undefined), the Kd was > 4 mM (inactive).

Regarding `O=C(/C=C1\SC(=O)NC1=O)NCc1ccccc1`, the Kd was > 4 mM (inactive).

Take `COC(=O)/C(=C1\OC(=O)C(c2ccccc2)C1=O)c1ccccc1` (centres undefined): the Kd is > 4 mM (inactive).

Values taken from PubChem BioAssay AID1033 (Sanford-Burnham Center for Chemical Genomics, 2008).
